Assay results: the supplement of paper PMC11061612

How the values were obtained:
Assay in all cases: Bliss excess, mean over the matrix (fraction); higher = more synergy
[1] = tested on: L-428 (Hodgkin's Lymphoma)
Summary of the method: (§1)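 After 24 hours at 37°C and 5% CO2 in 1536-well plates, cells in DMEM/F12 or RPMI plus 10% FBS received two-drug dose matrices for 72 hours. Viability came from CellTiter-Glo 2.0 luminescence and was scaled as inhibition, anchored at 0 by vehicle wells and at 1 by blank wells. Combination Emax is taken as the second-highest inhibition in the matrix, and Bliss excess as the observed combination effect less EA + EB − EA·EB, with EA and EB the single-agent effects.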

[2] = tested on: HuCCT1 (Biliary Tract Carcinoma)
Summary of the method: as §1

[3] = tested on: HuH-7 (Hepatocellular Carcinoma)
Summary of the method: as §1

[4] = tested on: NCI-H524 (Small Cell Lung Carcinoma)
Summary of the method: as §1

[5] = tested on: BE-13 (T-Lymphoblastic Leukemia)
Summary of the method: as §1

[6] = tested on: OE21 (Esophageal Squamous Cell Carcinoma)
Summary of the method: as §1

[7] = tested on: ESS-1 (Other Solid Carcinomas)
Summary of the method: as §1

[8] = tested on: WSU-NHL (B-Cell Non-Hodgkin's Lymphoma)
Summary of the method: as §1

[9] = tested on: A673 (Ewing's Sarcoma)
Summary of the method: as §1

[10] = tested on: MPP-89 (Mesothelioma)
Summary of the method: as §1

[11] = tested on: FTC-133 (Thyroid Gland Carcinoma)
Summary of the method: as §1

[12] = tested on: SW1710 (Bladder Carcinoma)
Summary of the method: as §1

[13] = tested on: KS-1 (Glioblastoma)
Summary of the method: as §1

[14] = tested on: LCLC-97TM1 (Non-Small Cell Lung Carcinoma)
Summary of the method: as §1

[15] = tested on: OV-56 (Ovarian Carcinoma)
Summary of the method: as §1

[16] = tested on: OVCAR-5 (Ovarian Carcinoma)
Summary of the method: as §1

[17] = tested on: LOXIMVI (Melanoma)
Summary of the method: as §1

[18] = tested on: SW1573 (Lung Adenocarcinoma)
Summary of the method: as §1

[19] = tested on: Hs-746T (Gastric Carcinoma)
Summary of the method: as §1

[20] = tested on: CAL-33 (Oral Cavity Carcinoma)
Summary of the method: as §1

SMILES | Bliss excess [1] | Bliss excess [2] | Bliss excess [3] | Bliss excess [4] | Bliss excess [5] | Bliss excess [6] | Bliss excess [7] | Bliss excess [8] | Bliss excess [9] | Bliss excess [10] | Bliss excess [11] | Bliss excess [12] | Bliss excess [13] | Bliss excess [14] | Bliss excess [15] | Bliss excess [16] | Bliss excess [17] | Bliss excess [18] | Bliss excess [19] | Bliss excess [20]
CS(=O)(=O)CCNCc1ccc(-c2ccc3ncnc(Nc4ccc(OCc5cccc(F)c5)c(Cl)c4)c3c2)o1 [Lapatinib] + C[C@@H](Oc1cc(-c2cnn(C3CCNCC3)c2)cnc1N)c1c(Cl)ccc(F)c1Cl [Crizotinib] (first compound max 10 µM, 7x7, partner max 10 µM) | -0.0032 | -0.068 | 0.0309 | -0.037 | -0.0235 | 0.0006 | -0.0637 | -0.0515 | -0.0546 | -0.0762 | -0.0012 | -0.078 | -0.0458 | -0.0093 | 0.0056 | -0.0818 | -0.0505 | -0.0788 | 0.0079 | -0.0247
CC1(C)CCC(CN2CCN(c3ccc(C(=O)NS(=O)(=O)c4ccc(NCC5CCOCC5)c([N+](=O)[O-])c4)c(Oc4cnc5[nH]ccc5c4)c3)CC2)=C(c2ccc(Cl)cc2)C1 [Venetoclax] + Cc1cc2ncnn2cc1Nc1ncc2c(n1)n(C1CCOCC1)c(=O)n2C [AZD7648] (first compound max 1 µM, 7x7, partner max 10 µM) | -0.0548 | -0.0609 | -0.022 | -0.005 | -0.0896 | -0.0076 | -0.0501 | -0.082 | -0.0124 | 0.0173 | -0.0156 | -0.0217 | -0.0296 | -0.0144 | 0.0016 | -0.075 | -0.0277 | -0.0609 | -0.0131 | 0.0043
CC(=O)c1c(C)c2cnc(Nc3ccc(N4CCNCC4)cn3)nc2n(C2CCCC2)c1=O [Palbociclib] + Cn1cnc2c(F)c(Nc3ccc(Br)cc3Cl)c(C(=O)NOCCO)cc21 [Selumetinib] (first compound max 10 µM, 7x7, partner max 10 µM) | -0.0083 | 0.0282 | -0.0584 | -0.0403 | -0.0003 | 0.0877 | -0.0097 | 0.107 | -0.009 | -0.0394 | -0.0403 | 0.0054 | -0.0012 | 0.0728 | -0.0587 | -0.0041 | 0.0724 | -0.0288 | -0.0475 | 0.0345
COc1cccc(OCCCN)c1-c1cc(Nc2cnc(C#N)cn2)n[nH]1 [Prexasertib] + O=C(c1cc(Cc2n[nH]c(=O)c3ccccc23)ccc1F)N1CCN(C(=O)C2CC2)CC1 [Olaparib] (first compound max 1 µM, 7x7, partner max 10 µM) | -0.0418 | -0.0824 | -0.0527 | -0.0666 | -0.0341 | -0.0499 | 0.0054 | -0.0532 | -0.0452 | -0.0227 | -0.0399 | -0.0857 | -0.0439 | -0.0381 | -0.0739 | -0.17 | -0.0372 | 0.001 | -0.0198 | -0.012
COc1nnc2ccc(N3CCC(c4ccc(OCCN5CCN(C)C(=O)[C@H]5C)cc4)CC3)nn12 [AZD5153] + CC1(C)CCC(CN2CCN(c3ccc(C(=O)NS(=O)(=O)c4ccc(NCC5CCOCC5)c([N+](=O)[O-])c4)c(Oc4cnc5[nH]ccc5c4)c3)CC2)=C(c2ccc(Cl)cc2)C1 [Venetoclax] (first compound max 1 µM, 7x7, partner max 1 µM) | -0.082 | -0.0517 | -0.0987 | -0.037 | -0.0428 | -0.0352 | -0.017 | 0.0355 | -0.0706 | -0.0166 | -0.0745 | -0.0739 | -0.0763 | -0.0277 | -0.062 | -0.052 | -0.0687 | -0.118 | -0.119 | -0.0393
Cc1c2c(nn1C)CSCc1cc(n(C)n1)CSc1cc(c3ccccc3c1)OCCCc1c(C(=O)O)n(C)c3c-2c(Cl)ccc13 [AZD5991] + C[C@@H](Nc1cc(F)cc(F)c1)c1cc(C(=O)N(C)C)cc2c(=O)cc(N3CCOCC3)oc12 [AZD8186] (first compound max 1 µM, 7x7, partner max 3 µM) | -0.0085 | 0.021 | -0.007 | -0.0289 | -0.109 | 0.0258 | -0.045 | -0.0366 | 0.0129 | 0.0083 | -0.0065 | -0.0083 | -0.0129 | -0.003 | 0.017 | -0.0106 | -0.0227 | -0.0565 | 0.0106 | -0.0099
Cc1c2c(nn1C)CSCc1cc(n(C)n1)CSc1cc(c3ccccc3c1)OCCCc1c(C(=O)O)n(C)c3c-2c(Cl)ccc13 [AZD5991] + CC1(C)CCC(CN2CCN(c3ccc(C(=O)NS(=O)(=O)c4ccc(NCC5CCOCC5)c([N+](=O)[O-])c4)c(Oc4cnc5[nH]ccc5c4)c3)CC2)=C(c2ccc(Cl)cc2)C1 [Venetoclax] (first compound max 1 µM, 7x7, partner max 1 µM) | -0.0151 | -0.0557 | -0.0272 | 0.0725 | 0.106 | 0.0182 | -0.0082 | 0.0602 | 0.0666 | -0.0065 | -0.0233 | -0.019 | -0.0307 | -0.023 | 0.0077 | -0.0365 | -0.0182 | -0.0549 | -0.0882 | 0.0122
COc1cccc(OCCCN)c1-c1cc(Nc2cnc(C#N)cn2)n[nH]1 [Prexasertib] + Cc1cc2ncnn2cc1Nc1ncc2c(n1)n(C1CCOCC1)c(=O)n2C [AZD7648] (first compound max 1 µM, 7x7, partner max 10 µM) | -0.0165 | -0.0259 | -0.0199 | -0.0204 | 0.0364 | -0.0116 | -0.0296 | -0.0355 | -0.0112 | -0.0104 | -0.0311 | -0.045 | 0.0198 | -0.0411 | -0.0467 | -0.0016 | 0.0017 | -0.0225 | -0.0512 | 0.0099
CC(=O)c1c(C)c2cnc(Nc3ccc(N4CCNCC4)cn3)nc2n(C2CCCC2)c1=O [Palbociclib] + CC1(C)CCC(CN2CCN(c3ccc(C(=O)NS(=O)(=O)c4ccc(NCC5CCOCC5)c([N+](=O)[O-])c4)c(Oc4cnc5[nH]ccc5c4)c3)CC2)=C(c2ccc(Cl)cc2)C1 [Venetoclax] (first compound max 10 µM, 7x7, partner max 1 µM) | 0.0037 | -0.0611 | -0.0402 | -0.0732 | -0.0182 | 0.0309 | -0.0303 | -0.0137 | -0.0426 | -0.0484 | -0.0481 | 0.0152 | -0.0211 | -0.0231 | -0.0448 | -0.0018 | -0.0045 | -0.0108 | -0.0117 | -0.022
